Measurements: patent US20230406885A1, “CYCLIC PEPTIDES FOR TRAPPING INTERLEUKIN-1 BETA” (MERCK SHARP & DOHME LLC, priority 2022, published 2023)
pIC50: −log10 of the molar value. *1 amine or outer side, *2 acyl side, *3 side chain or, on linkers, in order; H or OH if unused. Where a SMILES comes first, the peptide text is derived from it. [ ]: non-standard residue; d: D form. Phe(4-(trans-4-COOH-cHex)) = N[C@@H](Cc1ccc([C@H]2CC[C@H](C(=O)O)CC2)cc1)C(=O)O; Trp(4-Cl)(βS-Me) = C[C@@H](c1c[nH]c2cccc(Cl)c12)[C@H](N)C(=O)O; Trp(βS-Me,4-F) = C[C@@H](c1c[nH]c2cccc(F)c12)[C@H](N)C(=O)O; Bip(4'-COOH) = N[C@@H](Cc1ccc(-c2ccc(C(=O)O)cc2)cc1)C(=O)O; X1 = CC(=O)N1CCN(c2ccc(C[C@H](N[*:1])C(=O)[*:2])cn2)CC1; 1Nal(3S-Me) = C[C@@H](c1cccc2ccccc12)[C@H](N)C(=O)O; Phe(4-COOH) = N[C@@H](Cc1ccc(C(=O)O)cc1)C(=O)O; Trp(6-F) = N[C@@H](Cc1c[nH]c2cc(F)ccc12)C(=O)O; Pro(4R-NH2) = N[C@H]1CN[C@H](C(=O)O)C1; 1Nal = N[C@@H](Cc1cccc2ccccc12)C(=O)O; AEF = NCCOc1ccc(C[C@H](N)C(=O)O)cc1; hTyr = N[C@@H](CCc1ccc(O)cc1)C(=O)O; hCha = N[C@@H](CCC1CCCCC1)C(=O)O; hPhe = N[C@@H](CCc1ccccc1)C(=O)O; 3Pal = N[C@@H](Cc1cccnc1)C(=O)O; 4Pal = N[C@@H](Cc1ccncc1)C(=O)O; dDab = NCC[C@@H](N)C(=O)O; Nle = CCCC[C@H](N)C(=O)O; dNMeA = CN[C@H](C)C(=O)O; Dab = NCC[C@H](N)C(=O)O; Aib = CC(C)(N)C(=O)O

These compounds were tested against T1, Recombinant human IL-1β (Homo sapiens, UniProt P01584) (assay: IL-6 assay in MRC5 cells: inhibition of IL-1β induced IL-6 secretion (AlphaLISA)). Settings: not given.
T1 construct: purchased BioLegend 579404
Format: cell-based
Method in brief: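 IL-1β at 2×EC80 in seeding medium (EMEM, 0.025% BSA) preincubated 1 h at ambient temperature with compound, then 3000 MRC5 cells/well added and incubated overnight at 37 °C, 5% CO2. IL-6 in conditioned medium quantified by AlphaLISA; IC50 from 4-parameter logistic fit.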

T1 sequence (P01584 117-269): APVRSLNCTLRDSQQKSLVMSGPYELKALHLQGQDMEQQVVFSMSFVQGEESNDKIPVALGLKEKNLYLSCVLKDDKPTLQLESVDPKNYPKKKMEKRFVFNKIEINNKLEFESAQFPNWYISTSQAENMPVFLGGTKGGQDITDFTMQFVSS

Structure (SMILES) | pIC50
CC(=O)NCCOc1ccc(C[C@@H]2NC(=O)[C@H](Cc3ccc(OCCN)cc3)NC(=O)[C@@H](C)NC(=O)[C@H](CC(C)C)NC(=O)[C@H](Cc3c[nH]c4ccccc34)NC(=O)[C@H](Cc3ccc(-c4ccc(C(=O)O)cc4)cc3)NC(=O)CNC(=O)[C@@H](C)N(C)C(=O)[C@H](CC(=O)O)NC(=O)[C@H]([C@@H](C)c3c[nH]c4cccc(F)c34)NC(=O)[C@@H]3C[C@@H](N)CN3C(=O)CNC(=O)[C@H](Cc3ccc(C(=O)O)cc3)NC(=O)[C@H](Cc3c[nH]c4ccccc34)NC2=O)cc1 [Example 164] (cyclo([AEF][AEF](Ac)W[Phe(4-COOH)]G[Pro(4R-NH2)][Trp(βS-Me,4-F)]D[dNMeA]G[Bip(4'-COOH)]WL[dA])) | 9.34

Same assay, conditions: inhibition of IL-1β induced IL-6 secretion in MRC5 cells; IL-1β pre-incubated 1 hour with compound; read-out: MRC5 IC50

pIC50 | Structure (SMILES)
9.26 | CC(C)C[C@@H]1NC(=O)[C@H](Cc2cccc3ccccc23)NC(=O)[C@H](Cc2ccc(-c3ccc(C(=O)O)cc3)cc2)NC(=O)CNC(=O)[C@@H](C)N(C)C(=O)[C@H](C)NC(=O)[C@H]([C@@H](C)c2c[nH]c3cccc(Cl)c23)NC(=O)[C@@H]2C[C@@H](N)CN2C(=O)CNC(=O)[C@H](Cc2ccc(C(=O)O)cc2)NC(=O)[C@H](Cc2c[nH]c3ccccc23)NC(=O)[C@H](Cc2ccc(-c3ccc(C(=O)O)cc3)cc2)NC(=O)CNC(=O)C(C)(C)NC1=O [Example 33] (cyclo([Bip(4'-COOH)]W[Phe(4-COOH)]G[Pro(4R-NH2)][Trp(4-Cl)(βS-Me)]A[dNMeA]G[Bip(4'-COOH)][1Nal]L[Aib]G))
10.31 | C[C@@H]1C(=O)NCC(=O)N[C@@H](Cc2ccc(-c3ccc(C(=O)O)cc3)cc2)C(=O)N[C@@H](Cc2c[nH]c3ccccc23)C(=O)NCC(=O)N[C@H](CCN)C(=O)N[C@@H](CCc2ccc(O)cc2)C(=O)N[C@@H](Cc2ccc(-c3ccc(C(=O)O)cc3)cc2)C(=O)N[C@@H](Cc2c[nH]c3ccccc23)C(=O)N[C@@H](Cc2ccc(C(=O)O)cc2)C(=O)NCC(=O)N2C[C@H](N)C[C@H]2C(=O)N[C@@H]([C@@H](C)c2c[nH]c3cccc(Cl)c23)C(=O)N[C@@H](CCC(=O)O)C(=O)N1C [Example 55] (cyclo([Bip(4'-COOH)]W[Phe(4-COOH)]G[Pro(4R-NH2)][Trp(4-Cl)(βS-Me)]E[dNMeA]G[Bip(4'-COOH)]WG[dDab][hTyr]))
9.61 | CC(C)C[C@@H]1NC(=O)[C@H](CCCCN)NC(=O)[C@H](Cc2ccc(-c3ccc(C(=O)O)cc3)cc2)NC(=O)CNC(=O)[C@@H](C)N(C)C(=O)[C@H](CC(=O)O)NC(=O)[C@H]([C@@H](C)c2c[nH]c3cccc(Cl)c23)NC(=O)[C@@H]2C[C@@H](N)CN2C(=O)CNC(=O)[C@H](Cc2ccc(C(=O)O)cc2)NC(=O)[C@H](Cc2c[nH]c3ccccc23)NC(=O)[C@H](Cc2ccc(-c3ccc(C(=O)O)cc3)cc2)NC(=O)[C@H](CCc2ccc(O)cc2)NC(=O)[C@@H](CCN)NC1=O [Example 43] (cyclo([Bip(4'-COOH)]W[Phe(4-COOH)]G[Pro(4R-NH2)][Trp(4-Cl)(βS-Me)]D[dNMeA]G[Bip(4'-COOH)]KL[dDab][hTyr]))
10.07 | CC(=O)NCCOc1ccc(C[C@@H]2NC(=O)[C@H](CCc3ccccc3)NC(=O)[C@@H](C)NC(=O)[C@H](CCN)NC(=O)[C@H](Cc3c[nH]c4ccccc34)NC(=O)[C@H](Cc3ccc(-c4ccc(C(=O)O)cc4)cc3)NC(=O)CNC(=O)[C@@H](C)N(C)C(=O)[C@H](CC(=O)O)NC(=O)[C@H]([C@@H](C)c3cccc4ccccc34)NC(=O)[C@@H]3C[C@@H](N)CN3C(=O)CNC(=O)[C@H](Cc3ccc(C(=O)O)cc3)NC(=O)[C@H](Cc3c[nH]c4ccccc34)NC2=O)cc1 [Example 115] (cyclo([AEF](Ac)W[Phe(4-COOH)]G[Pro(4R-NH2)][1Nal(3S-Me)]D[dNMeA]G[Bip(4'-COOH)]W[Dab][dA][hPhe]))
9.61 | CC(C)C[C@@H]1NC(=O)[C@H](CCCCN)NC(=O)[C@H](Cc2ccc(-c3ccc(C(=O)O)cc3)cc2)NC(=O)CNC(=O)[C@@H](C)N(C)C(=O)[C@H](C)NC(=O)[C@H]([C@@H](C)c2c[nH]c3cccc(F)c23)NC(=O)[C@@H]2C[C@@H](N)CN2C(=O)CNC(=O)[C@H](Cc2ccc(C(=O)O)cc2)NC(=O)[C@H](Cc2c[nH]c3ccccc23)NC(=O)[C@H](Cc2ccc(-c3ccc(C(=O)O)cc3)cc2)NC(=O)[C@H](CCc2ccc(O)cc2)NC(=O)[C@@H](C)NC1=O [Example 58] (cyclo([Bip(4'-COOH)]W[Phe(4-COOH)]G[Pro(4R-NH2)][Trp(βS-Me,4-F)]A[dNMeA]G[Bip(4'-COOH)]KL[dA][hTyr]))
9.66 | C[C@@H]1C(=O)NCC(=O)N[C@@H](Cc2ccc(-c3ccc(C(=O)O)cc3)cc2)C(=O)N[C@@H](Cc2cccnc2)C(=O)N[C@@H](CO)C(=O)N[C@H](C)C(=O)N[C@@H](CCc2ccc(O)cc2)C(=O)N[C@@H](Cc2ccc(-c3ccc(C(=O)O)cc3)cc2)C(=O)N[C@@H](Cc2c[nH]c3ccccc23)C(=O)N[C@@H](Cc2ccc(C(=O)O)cc2)C(=O)NCC(=O)N2C[C@H](N)C[C@H]2C(=O)N[C@@H]([C@@H](C)c2c[nH]c3cccc(Cl)c23)C(=O)N[C@@H](CC(=O)O)C(=O)N1C [Example 38] (cyclo([Bip(4'-COOH)]W[Phe(4-COOH)]G[Pro(4R-NH2)][Trp(4-Cl)(βS-Me)]D[dNMeA]G[Bip(4'-COOH)][3Pal]S[dA][hTyr]))
9.59 | CC(C)C[C@@H]1NC(=O)[C@H](CCCCN)NC(=O)[C@H](Cc2ccc(-c3ccc(C(=O)O)cc3)cc2)NC(=O)CNC(=O)[C@@H](C)N(C)C(=O)[C@H](CC(N)=O)NC(=O)[C@H]([C@@H](C)c2c[nH]c3cccc(F)c23)NC(=O)[C@@H]2C[C@@H](N)CN2C(=O)CNC(=O)[C@H](Cc2ccc(C(=O)O)cc2)NC(=O)[C@H](Cc2c[nH]c3ccccc23)NC(=O)[C@H](Cc2ccc(-c3ccc(C(=O)O)cc3)cc2)NC(=O)[C@H](CCc2ccc(O)cc2)NC(=O)[C@@H](CCN)NC1=O [Example 81] (cyclo([Bip(4'-COOH)]W[Phe(4-COOH)]G[Pro(4R-NH2)][Trp(βS-Me,4-F)]N[dNMeA]G[Bip(4'-COOH)]KL[dDab][hTyr]))
10.18 | CC(=O)N1CCN(c2ccc(C[C@@H]3NC(=O)[C@H](CCc4ccc(O)cc4)NC(=O)[C@@H](C)NC(=O)[C@H](CC(C)C)NC(=O)[C@H](CCCCN)NC(=O)[C@H](Cc4ccc(-c5ccc(C(=O)O)cc5)cc4)NC(=O)CNC(=O)[C@@H](C)N(C)C(=O)[C@H](CC(=O)O)NC(=O)[C@H]([C@@H](C)c4c[nH]c5cccc(F)c45)NC(=O)[C@@H]4C[C@@H](N)CN4C(=O)CNC(=O)[C@H](Cc4ccc(C(=O)O)cc4)NC(=O)[C@H](Cc4c[nH]c5ccccc45)NC3=O)cn2)CC1 [Example 6] (cyclo([X1]W[Phe(4-COOH)]G[Pro(4R-NH2)][Trp(βS-Me,4-F)]D[dNMeA]G[Bip(4'-COOH)]KL[dA][hTyr]))

Same assay, conditions: inhibition of IL-1β induced IL-6 secretion in MRC5 cells; read-out: MRC5 IC50

pIC50 | Structure (SMILES)
9.64 | CC(=O)NCCOc1ccc(C[C@@H]2NC(=O)[C@H](CCc3ccc(O)cc3)NC(=O)[C@@H](C)NC(=O)[C@H](CCN)NC(=O)[C@H](Cc3c[nH]c4ccccc34)NC(=O)[C@H](Cc3ccc(-c4ccc(C(=O)O)cc4)cc3)NC(=O)CNC(=O)[C@@H](C)N(C)C(=O)[C@H](CC(=O)O)NC(=O)[C@H]([C@@H](C)c3c[nH]c4cccc(Cl)c34)NC(=O)[C@@H]3C[C@@H](N)CN3C(=O)CNC(=O)[C@H](Cc3ccc(C(=O)O)cc3)NC(=O)[C@H](Cc3c[nH]c4ccccc34)NC2=O)cc1 [Example 143] (cyclo([AEF](Ac)W[Phe(4-COOH)]G[Pro(4R-NH2)][Trp(4-Cl)(βS-Me)]D[dNMeA]G[Bip(4'-COOH)]W[Dab][dA][hTyr]))
10.92 | C[C@@H]1C(=O)NCC(=O)N[C@@H](Cc2ccc(-c3ccc(C(=O)O)cc3)cc2)C(=O)N[C@@H](Cc2ccncc2)C(=O)N[C@@H](CO)C(=O)N[C@H](CCN)C(=O)N[C@@H](CCC2CCCCC2)C(=O)N[C@@H](Cc2ccc([C@H]3CC[C@H](C(=O)O)CC3)cc2)C(=O)N[C@@H](Cc2c[nH]c3cc(F)ccc23)C(=O)N[C@@H](Cc2ccc(C(=O)O)cc2)C(=O)NCC(=O)N2C[C@H](N)C[C@H]2C(=O)N[C@@H]([C@@H](C)c2cccc3ccccc23)C(=O)N[C@@H](CC(=O)O)C(=O)N1C [Example 193] (cyclo([Phe(4-(trans-4-COOH-cHex))][Trp(6-F)][Phe(4-COOH)]G[Pro(4R-NH2)][1Nal(3S-Me)]D[dNMeA]G[Bip(4'-COOH)][4Pal]S[dDab][hCha]))
10.06 | COC[C@@H]1NC(=O)[C@H](Cc2c[nH]c3ccccc23)NC(=O)[C@H](Cc2ccc(-c3ccc(C(=O)O)cc3)cc2)NC(=O)CNC(=O)[C@@H](C)N(C)C(=O)[C@H](CC(=O)O)NC(=O)[C@H]([C@@H](C)c2c[nH]c3cccc(Cl)c23)NC(=O)[C@@H]2C[C@@H](N)CN2C(=O)CNC(=O)[C@H](Cc2ccc(C(=O)O)cc2)NC(=O)[C@H](Cc2c[nH]c3ccccc23)NC(=O)[C@H](Cc2ccc(OCCNC(C)=O)cc2)NC(=O)[C@H](CCc2ccc(O)cc2)NC(=O)[C@@H](C)NC1=O [Example 153] (cyclo([AEF](Ac)W[Phe(4-COOH)]G[Pro(4R-NH2)][Trp(4-Cl)(βS-Me)]D[dNMeA]G[Bip(4'-COOH)]WS(Me)[dA][hTyr]))
10.62 | CCCC[C@@H]1NC(=O)[C@@H](CCN)NC(=O)CNC(=O)[C@H](Cc2ccncc2)NC(=O)[C@H](Cc2ccc(-c3ccc(C(=O)O)cc3)cc2)NC(=O)CNC(=O)[C@@H](C)N(C)C(=O)[C@H](CC(=O)O)NC(=O)[C@H]([C@@H](C)c2cccc3ccccc23)NC(=O)[C@@H]2C[C@@H](N)CN2C(=O)CNC(=O)[C@H](Cc2ccc(C(=O)O)cc2)NC(=O)[C@H](Cc2c[nH]c3ccccc23)NC(=O)[C@H](Cc2ccc([C@H]3CC[C@H](C(=O)O)CC3)cc2)NC1=O [Example 197] (cyclo([Phe(4-(trans-4-COOH-cHex))]W[Phe(4-COOH)]G[Pro(4R-NH2)][1Nal(3S-Me)]D[dNMeA]G[Bip(4'-COOH)][4Pal]G[dDab][Nle]))
